For 31 compounds, IC50 results are on record in patent publication US9546164B2 (GENENTECH, INC., priority 2013, dated 2017).

Counter-ions that a name gives are not always drawn.

Sequence of hNav1.7 (Q15858 other isoform, or with tags, fused parts or gaps): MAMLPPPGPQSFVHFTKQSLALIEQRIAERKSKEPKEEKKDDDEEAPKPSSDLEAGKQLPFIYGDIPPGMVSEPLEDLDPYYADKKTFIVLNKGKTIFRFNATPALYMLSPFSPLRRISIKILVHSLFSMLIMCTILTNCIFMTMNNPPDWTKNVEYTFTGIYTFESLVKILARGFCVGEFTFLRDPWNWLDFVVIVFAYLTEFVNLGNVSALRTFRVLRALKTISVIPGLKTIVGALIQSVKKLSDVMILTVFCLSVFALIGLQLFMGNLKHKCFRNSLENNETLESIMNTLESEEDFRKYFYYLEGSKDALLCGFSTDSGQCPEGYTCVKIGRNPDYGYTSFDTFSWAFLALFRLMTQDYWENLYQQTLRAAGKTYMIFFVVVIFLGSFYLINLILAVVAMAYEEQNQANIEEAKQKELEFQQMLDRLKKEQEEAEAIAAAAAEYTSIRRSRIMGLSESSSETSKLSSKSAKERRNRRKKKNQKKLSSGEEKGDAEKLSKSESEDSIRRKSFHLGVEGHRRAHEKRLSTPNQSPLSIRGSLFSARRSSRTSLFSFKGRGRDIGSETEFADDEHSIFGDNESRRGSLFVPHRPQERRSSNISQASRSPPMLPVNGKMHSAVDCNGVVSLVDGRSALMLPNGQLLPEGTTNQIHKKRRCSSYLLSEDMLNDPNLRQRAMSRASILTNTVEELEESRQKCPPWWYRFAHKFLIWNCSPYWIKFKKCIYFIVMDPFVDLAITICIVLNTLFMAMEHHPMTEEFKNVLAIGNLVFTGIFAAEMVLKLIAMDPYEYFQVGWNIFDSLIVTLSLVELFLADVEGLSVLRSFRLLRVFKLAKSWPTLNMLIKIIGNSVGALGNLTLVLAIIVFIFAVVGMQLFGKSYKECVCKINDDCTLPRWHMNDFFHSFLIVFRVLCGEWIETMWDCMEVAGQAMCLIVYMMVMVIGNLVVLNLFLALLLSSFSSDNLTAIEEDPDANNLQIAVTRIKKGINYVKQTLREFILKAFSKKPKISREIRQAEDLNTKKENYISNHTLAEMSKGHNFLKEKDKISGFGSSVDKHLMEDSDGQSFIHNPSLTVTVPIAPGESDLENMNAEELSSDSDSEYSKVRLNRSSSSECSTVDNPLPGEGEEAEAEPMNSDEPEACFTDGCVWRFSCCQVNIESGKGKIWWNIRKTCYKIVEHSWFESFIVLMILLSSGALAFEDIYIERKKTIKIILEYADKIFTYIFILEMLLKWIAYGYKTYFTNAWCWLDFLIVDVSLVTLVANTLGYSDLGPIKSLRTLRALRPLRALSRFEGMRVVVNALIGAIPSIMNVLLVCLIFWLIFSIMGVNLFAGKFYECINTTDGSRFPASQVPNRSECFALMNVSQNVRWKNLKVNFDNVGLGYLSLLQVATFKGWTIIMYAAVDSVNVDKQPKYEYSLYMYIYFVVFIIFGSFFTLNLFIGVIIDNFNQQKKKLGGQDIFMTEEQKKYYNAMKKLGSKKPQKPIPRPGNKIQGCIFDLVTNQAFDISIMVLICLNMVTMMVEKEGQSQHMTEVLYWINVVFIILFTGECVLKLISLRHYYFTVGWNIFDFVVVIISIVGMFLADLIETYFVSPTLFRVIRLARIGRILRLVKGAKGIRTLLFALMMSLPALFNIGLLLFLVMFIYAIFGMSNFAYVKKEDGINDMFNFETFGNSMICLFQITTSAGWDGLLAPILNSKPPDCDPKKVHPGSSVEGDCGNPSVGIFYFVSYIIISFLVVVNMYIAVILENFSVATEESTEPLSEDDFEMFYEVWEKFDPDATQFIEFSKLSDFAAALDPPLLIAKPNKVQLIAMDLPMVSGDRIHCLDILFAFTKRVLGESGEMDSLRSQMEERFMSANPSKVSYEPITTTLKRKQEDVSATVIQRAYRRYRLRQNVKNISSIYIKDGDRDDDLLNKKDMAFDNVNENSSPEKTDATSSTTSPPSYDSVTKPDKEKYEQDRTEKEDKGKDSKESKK
Sequence of hNav1.7 (Q07699 19-218 partner): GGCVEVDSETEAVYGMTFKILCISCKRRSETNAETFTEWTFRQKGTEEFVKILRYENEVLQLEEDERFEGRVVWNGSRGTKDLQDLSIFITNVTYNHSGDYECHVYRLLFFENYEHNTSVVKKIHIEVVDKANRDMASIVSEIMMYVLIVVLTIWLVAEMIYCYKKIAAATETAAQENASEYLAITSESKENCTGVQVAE

One experiment concerns the target hNav1.7 (Homo sapiens (Human), UniProt Q15858). The experiment is described as follows: Tritiated sulfonamide competitive binding to membranes from cells expressing hNav1.7 and the β1 subunit.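 Further: Filter-bound radioactivity counted by liquid scintillation, nonspecific binding defined with excess unlabelled ligand, IC50 fitted to percent inhibition of specific binding.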
Details: not given
In turn, `CS(=O)(=O)NC(=O)c1cc(C2CC2)c(CN2CCC(Oc3ccc(Cl)c(Cl)c3)CC2)cc1F` [Example 509, 5-cyclopropyl-4-((4-(3,4-dichlorophenoxy)piperidin-1-yl)methyl)-2-fluoro-N-(methylsulfonyl)benzamide, trifluoroacetic acid salt)] displayed an IC50 of 13.1 nM.

`O=C(NS(=O)(=O)C1CC1)c1cc(C2CC2)c(O[C@@H]2CCCN(Cc3ccc(Cl)cc3Cl)C2)cc1F` [Example 31, (R)-5-cyclopropyl-N-(cyclopropylsulfonyl)-4-((1-(2,4-dichlorobenzyl)piperidin-3-yl)oxy)-2-fluorobenzamide]: the IC50 stood at 2.6 nM.

`O=C(NS(=O)(=O)N1CCC1)c1cc(C2CC2)c(O[C@@H]2CCCN(Cc3ccc(Cl)cc3Cl)C2)cc1F` [Example 30, (R)—N-(azetidin-1-ylsulfonyl)-5-cyclopropyl-4-((1-(2,4-dichlorobenzyl)piperidin-3-yl)oxy)-2-fluorobenzamide]: the IC50 was 2.7 nM. On the same count and under the same terms, in the case of `CS(=O)(=O)NC(=O)c1cc(C2CC2)c(OCC2CCN(Cc3cc(Cl)cc(C#N)c3)CC2)cc1F` [Example 590, 4-((1-(3-chloro-5-cyanobenzyl)piperidin-4-yl)methoxy)-5-cyclopropyl-2-fluoro-N-(methylsulfonyl)benzamide] it was 26 nM; in that of `CS(=O)(=O)NC(=O)c1cc(C2CC2)c(CN2CCC([S+]([O-])c3cc(Cl)cc(Cl)c3)CC2)cc1F` (stereo not shown) [Example 534, 5-cyclopropyl-4-((4-((3,5-dichlorophenyl)sulfinyl)piperidin-1-yl)methyl)-2-fluoro-N-(methylsulfonyl)benzamide, trifluoroacetic acid salt], 879 nM; in that of `O=C(NS(=O)(=O)C1CC1)c1cc(C2CC2)c(CN2CC(Oc3cc(Cl)cc(Cl)c3)C2)cc1F` [Example 545, 5-cyclopropyl-N-(cyclopropylsulfonyl)-4-((3-(3,5-dichlorophenoxy)azetidin-1-yl)methyl)-2-fluorobenzamide, trifluoroacetic acid salt], 3.4 nM. Same read-out and setting: under `O=C(NS(=O)(=O)C1CC1)c1cc(C2CC2)c(CN2CCN(Cc3cc(Cl)cc(Cl)c3)CC2)cc1F` [Example 518, 5-cyclopropyl-N-(cyclopropylsulfonyl)-4-((4-(3,5-dichlorobenzyl)piperazin-1-yl)methyl)-2-fluorobenzamide, trifluoroacetic acid salt] stands 8.2 nM.

The experiment is the same for the next values; noted with them: read-out: Ligand Binding Assay; 100 pM [3H]compound, membranes with hNav1.7 and β1 subunit, 18 h, room temperature.
With `CC(c1cc(F)cc(F)c1)N1CCC(COc2cc(F)c(C(=O)NS(C)(=O)=O)cc2C2CC2)CC1` (stereo not shown) [Example 89, 5-Cyclopropyl-4-((1-(1-(3,5-difluorophenyl)ethyl)piperidin-4-yl)methoxy)-2-fluoro-N-(methylsulfonyl)benzamide], the IC50 was 22.3 nM. On the same count and under the same terms, in the case of `CCC(c1cc(Cl)cc(Cl)c1)N1CCC(COc2cc(F)c(C(=O)NS(C)(=O)=O)cc2C2CC2)CC1` (stereo not shown) [Example 155, 5-Cyclopropyl-4-((1-(1-(3,5-dichlorophenyl)propyl)piperidin-4-yl)methoxy)-2-fluoro-N-(methylsulfonyl)benzamide] it was 2.02 nM; in that of `C[C@H](c1cc(Cl)cc(C(F)(F)F)c1)N1CCC(COc2cc(F)c(C(=O)NS(C)(=O)=O)cc2C2CC2)CC1` (single isomer, unassigned) [Example 276], 5.7 nM; in that of `C[C@@H](c1cc(Cl)cc(Cl)c1)N1CCC(C)(COc2cc(F)c(C(=O)NS(C)(=O)=O)cc2C2CC2)CC1` (single isomer, unassigned) [Example 211], 1.7 nM. On the same count and under the same terms, in the case of `CC(C)Nc1ccc(F)cc1CN1CCC(COc2cc(F)c(C(=O)NS(=O)(=O)C3CC3)cc2C2CC2)CC1` [Example 356, 5-cyclopropyl-N-(cyclopropylsulfonyl)-2-fluoro-4-((1-(5-fluoro-2-(isopropylamino)benzyl)piperidin-4-yl)methoxy)benzamide, trifluoroacetic acid salt] it was 5.8 nM; in that of `CS(=O)(=O)NC(=O)c1cc(C2CC2)c(OCC2CCN(S(=O)(=O)c3ccc(OC(F)(F)F)cc3)CC2)cc1F` [Example 378, 5-cyclopropyl-2-fluoro-N-(methylsulfonyl)-4-((1-((4-(trifluoromethoxy)phenyl)sulfonyl)piperidin-4-yl)methoxy)benzamide], 45.9 nM. With `CS(=O)(=O)NC(=O)c1cc(C2CC2)c(CN2CCO[C@@H](Cc3ccc(Cl)c(Cl)c3)C2)cc1F` [Example 461, (S)-5-cyclopropyl-4-((2-(3,4-dichlorobenzyl)morpholino)methyl)-2-fluoro-N-(methylsulfonyl)benzamide], the IC50 was 42.1 nM. The same measure, in the same setting: under `C[C@H](c1cc(Cl)cc(Cl)c1)N1CC(COc2cc(F)c(C(=O)NS(C)(=O)=O)cc2C2CC2)C1` [Example 121, (R)-5-Cyclopropyl-4-((1-(1-(3,5-dichlorophenyl)ethyl)azetidin-3-yl)methoxy)-2-fluoro-N-(methylsulfonyl)benzamide] stands 30.1 nM. The same measure, in the same setting: in the case of `CS(=O)(=O)NC(=O)c1cc(C2CC2)c(CN2[C@@H]3CC[C@H]2C[C@@H](Oc2cc(Cl)cc(OC(F)(F)F)c2)C3)cc1F` [Example 560, 4-(((1R,3r,5S)-3-(3-chloro-5-(trifluoromethoxy)phenoxy)-8-azabicyclo[3.2.1]octan-8-yl)methyl)-5-cyclopropyl-2-fluoro-N-(methylsulfonyl)benzamide, trifluoroacetic acid salt] it was 2.8 nM; in that of `CS(=O)(=O)NC(=O)c1cc(C2CC2)c(OCC2(F)CCN(Cc3cc(C(F)(F)F)cc(C4CC4)n3)CC2)cc1F` [Example 596], 59.9 nM. `C[C@@H](c1ccc(OC(F)(F)F)cc1)N1CCC(C)(COc2cc(F)c(C(=O)NS(C)(=O)=O)cc2C2CC2)CC1` (single isomer, unassigned) [Example 248]: the IC50 came out at 10 nM.

With `CS(=O)(=O)NC(=O)c1cc(C2CC2)c(OCC2CCN(S(=O)(=O)c3ccc(C(F)(F)F)cc3)CC2)cc1F` [Example 372, 5-cyclopropyl-2-fluoro-N-(methylsulfonyl)-4-((1-((4-(trifluoromethyl)phenyl)sulfonyl)piperidin-4-yl)methoxy)benzamide], the IC50 stood at 49.2 nM. Same read-out and setting: in the case of `Cc1ccc(CN2CCC(COc3cc(F)c(C(=O)NS(C)(=O)=O)cc3C3CC3)CC2)cc1` [Example 93, 5-Cyclopropyl-2-fluoro-4-((1-(4-methylbenzyl)piperidin-4-yl)methoxy)-N-(methylsulfonyl)benzamide] it was 173 nM. The same measure, in the same setting: in the case of `C[C@@H](c1cc(Cl)cc(Cl)c1)N1CCC(COc2cc(F)c(C(=O)NS(C)(=O)=O)cc2Cl)CC1` [Example 402, (S)-5-chloro-4-((1-(1-(3,5-dichlorophenyl)ethyl)piperidin-4-yl)methoxy)-2-fluoro-N-(methylsulfonyl)benzamide, trifluoroacetic acid salt] it was 22.4 nM; in that of `CS(=O)(=O)NC(=O)c1cc(C2CC2)c(OCC2CCN(C3(c4cc(Cl)cc(Cl)c4)COC3)CC2)cc1F` [Example 174, 5-Cyclopropyl-4-((1-(3-(3,5-dichlorophenyl)oxetan-3-yl)piperidin-4-yl)methoxy)-2-fluoro-N-(methylsulfonyl)benzamide], 12 nM; in that of `C[C@H](c1ccc(F)cc1)N1CCC[C@@H](Oc2cc(F)c(C(=O)NS(=O)(=O)C3CC3)cc2C2CC2)C1` [Example 317, 5-cyclopropyl-N-(cyclopropylsulfonyl)-2-fluoro-4-(((R)-1-((R)-1-(4-fluorophenyl)ethyl)piperidin-3-yl)oxy)benzamide], 6 nM.

On to `CCS(=O)(=O)NC(=O)c1cc(C2CC2)c(OCC2CCN([C@H](COC)c3ccc(Cl)cc3Cl)CC2)cc1F` [Example 286, (S)-5-cyclopropyl-4-((1-(1-(2,4-dichlorophenyl)-2-methoxyethyl)piperidin-4-yl)methoxy)-N-(ethylsulfonyl)-2-fluorobenzamide], for which the IC50 is 5.4 nM. On the same count and under the same terms, in the case of `CS(=O)(=O)NC(=O)c1cc(C2CC2)c(O[C@@H]2CCCN(CC3(C(F)(F)F)CCC3)C2)cc1F` [Example 328, (R)-5-cyclopropyl-2-fluoro-N-(methylsulfonyl)-4-((1-((1-(trifluoromethyl)cyclobutyl)methyl)piperidin-3-yl)oxy)benzamide] it was 6.4 nM.

Consider `CC1(COc2cc(F)c(C(=O)NS(=O)(=O)C3CC3)cc2C2CC2)CN(c2ccc(C(F)(F)F)cn2)C1` [Example 488, 5-cyclopropyl-N-(cyclopropylsulfonyl)-2-fluoro-4-((3-methyl-1-(5-(trifluoromethyl)pyridin-2-yl)azetidin-2-3-yl)methoxy)benzamide, trifluoroacetic acid salt], for which the IC50 was determined as 9.2 nM. Still for that read-out and setting: under `CS(=O)(=O)NC(=O)c1cc(C2CC2)c(CN2CCC(OCc3ccc(F)cc3Cl)CC2)cc1F` [Example 478, 4-((4-((2-chloro-4-fluorobenzyl)oxy)piperidin-1-yl)methyl)-5-cyclopropyl-2-fluoro-N-(methylsulfonyl)benzamide, trifluoroacetic acid salt] stands 38.1 nM. On the same count and under the same terms, in the case of `O=C(NS(=O)(=O)N1CCC1)c1cc(C2CC2)c(O[C@@H]2CCN(Cc3ccccc3)C2)cc1F` [Example 46, (R)—N-(azetidin-1-ylsulfonyl)-4-((1-benzylpyrrolidin-3-yl)oxy)-5-cyclopropyl-2-fluorobenzamide] it was 920 nM; in that of `CS(=O)(=O)NC(=O)c1cc(C2CC2)c(OCC2CCN(Cc3ccccc3)CC2)cc1F` [Example 87, 4-((1-Benzylpiperidin-4-yl)methoxy)-5-cyclopropyl-2-fluoro-N-(methylsulfonyl)benzamide], 278 nM; in that of `CS(=O)(=O)NC(=O)c1cc(C2CC2)c(OCC2CN([C@H](c3ccccc3)c3ccccc3Cl)C2)cc1F` [Example 151, (R)-4-((1-((2-Chlorophenyl)(phenyl)methyl)azetidin-3-yl)methoxy)-5-cyclopropyl-2-fluoro-N-(methylsulfonyl)benzamide], 9.94 nM.

As to `O=C(NS(=O)(=O)C1CC1)c1cc(C2CC2)c(CN2CCO[C@@H](Cc3ccc(Cl)c(Cl)c3)C2)cc1F` [Example 462], the IC50 was 36.3 nM.
